# Reference: ChEMBL document CHEMBL1201862, “PubChem BioAssay data set” (2004)
# Activity calls are given as the source filed them. Cut-off read from the data, not from the text of the source, for most assays here: actives have a measured EC50 and inactives only a lower limit.
# What was measured:
# Protein RecA = target: T1, Protein RecA (Mycobacterium tuberculosis, UniProt P9WHJ3); test: Fluorescence Cell-Free Homogeneous Dose Retest to Identify Inhibitors of RecA-Intein Splicing Activity. [Related pubchem assays (depositor defined):AID2097, AID2223, AID489010, AID492950]; format: functional
# T1 sequence (P9WHJ3 whole entry): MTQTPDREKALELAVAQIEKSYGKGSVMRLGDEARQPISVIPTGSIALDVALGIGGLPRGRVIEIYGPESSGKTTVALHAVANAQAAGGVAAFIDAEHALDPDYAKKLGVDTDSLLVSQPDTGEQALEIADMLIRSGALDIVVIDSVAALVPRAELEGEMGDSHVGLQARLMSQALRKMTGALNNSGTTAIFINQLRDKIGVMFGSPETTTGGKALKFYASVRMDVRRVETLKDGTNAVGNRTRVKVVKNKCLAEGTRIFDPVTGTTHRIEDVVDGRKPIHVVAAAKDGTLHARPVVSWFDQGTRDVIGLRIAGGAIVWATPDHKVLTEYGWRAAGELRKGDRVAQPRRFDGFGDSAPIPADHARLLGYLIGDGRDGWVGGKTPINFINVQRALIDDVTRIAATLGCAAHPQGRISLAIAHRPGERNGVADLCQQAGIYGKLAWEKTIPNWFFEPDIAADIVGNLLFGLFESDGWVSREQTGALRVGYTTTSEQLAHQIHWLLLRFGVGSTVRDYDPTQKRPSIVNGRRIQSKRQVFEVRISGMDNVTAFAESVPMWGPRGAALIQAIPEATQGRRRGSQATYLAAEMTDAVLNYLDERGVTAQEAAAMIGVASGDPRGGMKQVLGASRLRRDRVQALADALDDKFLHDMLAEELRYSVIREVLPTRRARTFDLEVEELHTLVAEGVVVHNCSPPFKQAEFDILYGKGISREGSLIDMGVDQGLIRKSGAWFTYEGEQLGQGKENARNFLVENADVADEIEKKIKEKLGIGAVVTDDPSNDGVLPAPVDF
# [1] = target: T2, Replicative DNA helicase DnaB (Mycobacterium tuberculosis, UniProt P9WMR3); test: DnaB intein splicing inhibitors, dose response, biochemical, cell-free fluorescence (AID 449749); format: functional
# T2 sequence (P9WMR3 whole entry): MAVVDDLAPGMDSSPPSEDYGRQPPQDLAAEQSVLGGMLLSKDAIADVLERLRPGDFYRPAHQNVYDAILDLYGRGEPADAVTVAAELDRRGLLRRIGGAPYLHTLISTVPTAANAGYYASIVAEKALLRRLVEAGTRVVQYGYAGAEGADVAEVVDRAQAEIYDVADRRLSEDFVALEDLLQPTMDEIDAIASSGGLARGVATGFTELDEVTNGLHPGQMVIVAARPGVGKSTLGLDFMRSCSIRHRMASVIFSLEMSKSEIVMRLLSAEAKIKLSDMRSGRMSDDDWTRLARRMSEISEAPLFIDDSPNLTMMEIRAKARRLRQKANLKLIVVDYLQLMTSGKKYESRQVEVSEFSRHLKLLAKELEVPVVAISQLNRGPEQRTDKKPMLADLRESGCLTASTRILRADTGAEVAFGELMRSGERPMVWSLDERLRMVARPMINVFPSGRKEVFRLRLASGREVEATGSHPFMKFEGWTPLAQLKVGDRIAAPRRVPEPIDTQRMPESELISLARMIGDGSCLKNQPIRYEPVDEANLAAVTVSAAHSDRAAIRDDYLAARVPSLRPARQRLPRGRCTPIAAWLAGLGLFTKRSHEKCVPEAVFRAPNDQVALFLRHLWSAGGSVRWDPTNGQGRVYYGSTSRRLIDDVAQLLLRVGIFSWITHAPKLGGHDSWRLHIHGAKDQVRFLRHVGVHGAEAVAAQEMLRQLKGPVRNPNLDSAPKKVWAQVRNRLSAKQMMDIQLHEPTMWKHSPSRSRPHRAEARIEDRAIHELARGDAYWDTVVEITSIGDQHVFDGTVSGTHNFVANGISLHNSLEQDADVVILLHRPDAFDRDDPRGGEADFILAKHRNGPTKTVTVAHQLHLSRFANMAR
# [2] = inhibitors of firefly luciferase expression or activity, dose response, H4 neuroglioma cells, luminescence (AID 1990); format: functional, cell-based
# [3] = Luminescence Cell-Based Dose Response HTS to Identify Inhibitors of 5'UTR Stem-Loop Driven Prion Protein mRNA Translation in H4 Neuroglioblastoma Cells. [Related pubchem assays: 1827 (Project Summary), 1813 (Primary HTS)]; format: functional
# [4] = inhibitors of SNCA 5'UTR-driven reporter translation, confirmation, H4 neuroglioma cells, luminescence (AID 1988); format: functional, cell-based
# [5] = target: T3, Heat shock factor protein 1 (Mus musculus, UniProt P38532); test: inhibition of MG132-induced HSE-luciferase signal, confirmation, cell-based, NIH3T3, luminescence, dose retest (AID 2382); format: functional;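 note: NIH3T3 fibroblasts with HSF1-driven luciferase reporter stressed by proteasome inhibitor MG132; luminescence from HSF1-driven luciferase expression after 8 hours of MG132 stress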
# T3 sequence (P38532 whole entry): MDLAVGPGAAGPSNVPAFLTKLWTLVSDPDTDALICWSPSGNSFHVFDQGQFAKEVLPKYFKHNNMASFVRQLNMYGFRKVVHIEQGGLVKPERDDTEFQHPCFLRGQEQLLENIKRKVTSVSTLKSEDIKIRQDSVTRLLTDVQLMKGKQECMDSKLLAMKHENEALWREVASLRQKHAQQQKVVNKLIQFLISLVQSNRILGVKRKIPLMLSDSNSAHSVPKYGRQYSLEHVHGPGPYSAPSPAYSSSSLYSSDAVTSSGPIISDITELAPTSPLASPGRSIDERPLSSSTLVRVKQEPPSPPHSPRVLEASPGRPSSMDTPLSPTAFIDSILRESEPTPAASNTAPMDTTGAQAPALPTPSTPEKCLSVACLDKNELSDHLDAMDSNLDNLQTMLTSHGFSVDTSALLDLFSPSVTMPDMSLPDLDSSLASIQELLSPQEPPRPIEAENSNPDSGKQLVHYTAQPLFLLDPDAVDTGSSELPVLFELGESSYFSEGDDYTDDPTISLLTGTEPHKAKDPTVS
# [6] = Luminescence Cell-Based Dose Confirmation HTS to Identify Inhibitors of Platelet Dense Granule Release. [Related pubchem assays: 1663 (Primary HTS), 1678 (Summary of Project)]; format: functional
# [7] = target: Luciferin 4-monooxygenase (Photinus pyralis, UniProt P08659); test: firefly luciferase enzyme inhibitors, dose response, biochemical, luminescence (AID 1891)
# [8] = Shn3 3'UTR reporter inhibitors, dose response, cell-based, Clone20 osteoblasts, firefly luciferase, cherry-picked (AID 624132); format: functional;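 note: firefly luciferase luminescence from reporter carrying the Shn3 3'UTR in osteoblasts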
# [9] = control 3'UTR Renilla luciferase suppression, dose response, counter-screen for Shn3 inhibitor project, cell-based, Clone20-Shn3RL, cherry-picked (AID 624133); format: functional
# [10] = target: T4, Corticotropin-releasing factor receptor 2/Corticotropin-releasing factor-binding protein (Homo sapiens, UniProt P24387+Q13324); test: activators of CRF receptor 2 with binding protein – uHTS hits, confirmation (AID 602473); format: functional; details: read-out: EC50_Mean
# T4 sequence (Q13324 whole entry): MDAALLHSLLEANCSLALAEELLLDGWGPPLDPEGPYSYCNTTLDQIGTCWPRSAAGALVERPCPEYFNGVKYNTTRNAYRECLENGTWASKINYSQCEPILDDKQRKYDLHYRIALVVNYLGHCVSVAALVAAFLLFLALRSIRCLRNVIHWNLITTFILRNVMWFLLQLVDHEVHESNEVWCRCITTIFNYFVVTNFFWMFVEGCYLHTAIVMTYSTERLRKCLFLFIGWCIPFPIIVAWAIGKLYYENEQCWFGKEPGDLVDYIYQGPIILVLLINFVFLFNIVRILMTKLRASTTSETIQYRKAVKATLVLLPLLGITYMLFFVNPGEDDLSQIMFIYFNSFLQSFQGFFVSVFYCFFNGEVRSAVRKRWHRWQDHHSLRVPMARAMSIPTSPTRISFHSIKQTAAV
# T4 sequence (P24387 whole entry): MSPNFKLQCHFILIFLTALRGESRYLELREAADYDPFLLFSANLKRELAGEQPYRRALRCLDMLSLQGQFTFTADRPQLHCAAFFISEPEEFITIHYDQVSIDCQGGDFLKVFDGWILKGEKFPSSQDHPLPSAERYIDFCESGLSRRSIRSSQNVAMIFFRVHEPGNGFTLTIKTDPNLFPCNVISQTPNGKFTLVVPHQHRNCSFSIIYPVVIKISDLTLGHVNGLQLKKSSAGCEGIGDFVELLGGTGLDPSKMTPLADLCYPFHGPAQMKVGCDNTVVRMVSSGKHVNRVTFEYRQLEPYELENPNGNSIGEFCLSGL
# [11] = target: T4, Corticotropin-releasing factor receptor 2/Corticotropin-releasing factor-binding protein; test: Dose Response confirmation of uHTS hits for small molecule antagonists of the CRF-binding protein and CRF-R2 receptor complex.; format: functional; details: read-out: IC50_Mean
# [12] = system: Streptococcus sp. 'group A'; test: growth inhibition of control SK(-) GAS strain, dose response, counter-screen for streptokinase expression inhibitor project, luminescence, kanamycin, BacTiterGlo, confirmation (AID 1900); format: functional, organism-based
# Streptococcus = test: Group A Streptococcus viability loss, dose response, counter-screen for streptokinase expression inhibitor project, luminescence, BacTiterGlo (AID 1915); format: functional, organism-based;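 note: potency for reduction of bacterial viability or growth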
# H4 = test: Luminescence Cell-Based Dose Response HTS to Identify Activators of 5'UTR Stem-Loop Driven Prion Protein mRNA Translation in H4 Neuroglioblastoma Cells. [Related pubchem assays: 1829 (Project Summary), 1814 (Primary HTS)]; format: functional; details: Homo sapiens
# [13] = Luminescence Cell-Based Dose Confirmation HTS to Identify Activators of 5'UTR Stem-Loop Driven Alpha-Synuclein mRNA Translation in H4 Neuroglioblastoma Cells. [Related pubchem assays: 1829 (Project Summary), 1814 (Primary HTS)]; format: functional
# [14] = Luminescence Cell-Based Dose Response HTS to Identify Activators of Luciferase Translation or Activity in H4 […] Cells. [Related pubchem assays: 1829 (Project Summary), 1814 (Primary HTS)]; format: functional
# [15] = growth suppression of beta-catenin-knockout colon cells, dose response, cell-based, HCT116, human colon tumor (AID 1045); format: functional;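 note: HCT116 colon tumor cells with beta catenin knocked out; cells exposed to compound for 60 hours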
# [16] = growth suppression of PTEN-null colon cells, dose response, cell-based, HCT116 PTEN knockout (AID 1047); format: functional;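 note: HCT116 colon tumor cells with PTEN knocked out; cells exposed to compound for 60 hours before readout; potency for loss of cell viability measured by luminescence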
# Luciferin 4-monooxygenase, sequence (P08659 whole entry): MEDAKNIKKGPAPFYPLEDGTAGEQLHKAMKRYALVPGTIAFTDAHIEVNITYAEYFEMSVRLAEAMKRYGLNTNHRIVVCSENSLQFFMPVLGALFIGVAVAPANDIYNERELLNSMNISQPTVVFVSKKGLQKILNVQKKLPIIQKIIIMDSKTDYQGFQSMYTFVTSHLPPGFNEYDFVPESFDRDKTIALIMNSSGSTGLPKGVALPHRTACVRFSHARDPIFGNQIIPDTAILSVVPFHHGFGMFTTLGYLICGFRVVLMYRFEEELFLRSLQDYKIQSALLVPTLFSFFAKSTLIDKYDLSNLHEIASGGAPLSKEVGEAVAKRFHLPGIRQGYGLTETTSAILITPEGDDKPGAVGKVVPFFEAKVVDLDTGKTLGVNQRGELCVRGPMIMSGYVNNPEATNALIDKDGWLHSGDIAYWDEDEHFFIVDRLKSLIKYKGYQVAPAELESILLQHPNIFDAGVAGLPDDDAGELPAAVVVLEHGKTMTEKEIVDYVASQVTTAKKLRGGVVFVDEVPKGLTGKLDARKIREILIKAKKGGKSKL
compound,measurement,setting,value
O=[N+]([O-])c1ccc(N2CCCC(C(F)(F)F)C2)c2ccncc12 (centres undefined),EC50,Protein RecA,10.8 µM (active)
same,AC50,[1],> 380 µM (inactive)
same,EC50,[2],> 120 µM (not active)
same,EC50,[3],> 120 µM (not active)
same,EC50,[4],> 120 µM (not active)
O=C(CSc1ccccc1)Nc1cccc(NC(=O)c2ccco2)c1,EC50,[5],> 195 µM (not active)
CC1C/C(=N/Nc2nc3ccccc3[nH]2)CC(C)(C)C1 (centres undefined),EC50,[5],> 195 µM (not active)
Cc1ccc(-c2cnn(-c3ccccc3)c2N)cc1,EC50,[6],2.57 µM (active)
same,EC50,[7],1.92 µM (active)
CCOC(=O)Cc1ccc2sc(-c3ccccc3)nc2c1,EC50,[6],2.68 µM (active)
same,EC50,[7],1.54 µM (active)
C[C@H]1COC(=O)[C@H](NC(=O)OCC2c3ccccc3-c3ccccc32)C/C=C\C[C@H](CC(=O)N(CCO)Cc2ccccc2)C(=O)N1,AC50,[8],6.08 µM (active)
same,AC50,[9],5.76 µM (active)
Cc1ccc(OC(=O)c2ccc([N+](=O)[O-])cc2Cl)cn1,EC50,Protein RecA,4.92 µM (active)
same,AC50,[1],11.2 µM (active)
CCOc1ccc(C2C(C(=O)NC)=C(C)Nc3nc4ccccc4n32)cc1OC (centres undefined),EC50,[6],> 112 µM (not active)
same,EC50,[7],> 112 µM (not active)
COc1cc(C=C(c2nc3ccccc3s2)c2nc3ccccc3s2)ccc1O,EC50,Protein RecA,5.08 µM (active)
same,AC50,[1],> 380 µM (inactive)
COc1cc(OC)c2c(c1)OCC1CON(C)C21 (centres undefined),EC50,[5],> 195 µM (not active)
Cc1ccc(SCc2n[nH]c3c2C(c2ccco2)C(C#N)=C(N)O3)cc1 (centres undefined),EC50,Protein RecA,6.19 µM (active)
same,AC50,[1],< 0.018 µM (active)
N#C/C(=C(/O)Cc1cccc2ccccc12)c1nc2ccccc2s1,EC50,[10],3.14 µM (active)
same,IC50,[11],2.49 µM (active)
same,EC50,[12],2.91 µM (active)
same,EC50,Streptococcus,3.17 µM (active)
O=Cc1c(-c2ccc(Cl)cc2)oc2ccc(O)cc12,EC50,[5],18 µM (active)
COc1ccc(CCN2CC(C(=O)NCCc3ccc(C(F)(F)F)cc3)CCC2=O)cc1 (centres undefined),EC50,[6],> 112 µM (not active)
same,EC50,[7],> 112 µM (not active)
CCOC(=O)c1cnn(-c2ccccc2)c1-n1cccc1,EC50,[5],> 195 µM (not active)
CCCN(Cc1ccccc1)C(=S)NC(=O)c1ccccc1[N+](=O)[O-],EC50,[5],> 195 µM (not active)
CC(=O)N1C(=O)C2(C(C#N)=C(N)Oc3c2c(C)nn3-c2ccccc2)c2ccccc21 (centres undefined),EC50,Protein RecA,2.28 µM (active)
same,AC50,[1],4.34 µM (active)
O=C(Nc1ccccn1)c1c(O)c2cccc3c2n(c1=O)CCC3,EC50,[6],> 112 µM (not active)
same,EC50,[7],> 112 µM (not active)
S=C(Nc1ccc(Nc2ccccc2)cc1)NN1CCOCC1,EC50,H4,> 120 µM (not active)
same,EC50,[13],> 120 µM (not active)
same,EC50,[5],> 195 µM (not active)
same,EC50,[14],56.1 µM (active)
CC(C)OCCCNCC(O)c1ccccc1 (centres undefined),EC50,[6],> 112 µM (not active)
same,EC50,[7],> 112 µM (not active)
CC(C)(C)c1ccc(C(=O)NC(=S)N2CCCC2)cc1,EC50,[5],> 195 µM (not active)
O=C1CC(NC(=O)C(F)(F)F)=NN1c1ccccc1,EC50,Protein RecA,5.51 µM (active)
same,AC50,[1],6.86 µM (active)
COc1cccc(/C=N/NC(=O)c2cnccn2)c1,EC50,[5],> 195 µM (not active)
Cc1c2cnn(CC(=O)NC3CCCC3)c(=O)c2c(C)n1Cc1ccccc1,EC50,[10],> 53 µM (inactive)
same,IC50,[11],> 47.1 µM (inactive)
same,EC50,[14],51.2 µM (active)
CC1=C(C)/C(=N/OC(=O)c2cccc([N+](=O)[O-])c2)C=CC1=O,EC50,Protein RecA,0.418 µM (active)
same,AC50,[1],> 380 µM (inactive)
same,EC50,[15],9.24 µM (active)
same,EC50,[16],9.44 µM (active)
O=S(=O)(c1ccccc1)N1CN2CCN(C2)C1,EC50,[5],> 195 µM (not active)
CCc1nn2c(=O)c(S(=O)(=O)Nc3cccc(F)c3)c(C)nc2s1,EC50,[5],> 195 µM (not active)
